Results on one molecule are retold here after US9839669B2 (priority 2011, dated 2017).

One data set deals with HSV-1. Format: cell-based, Herpes simplex viruses type 1. The conditions noted are these: Aciclovir 1.5 mmol.

Structures are written as SMILES. Like-named read-outs stand apart in the source and are kept apart here.

In the data set on HSV-1 (average over virus dilutions), `Nc1nc2c(ncn2COCCO)c(=O)[nH]1` [Aciclovir] came in with an Average relative inhibition of 100. The “Number of plaque, Mean value” in the data set with HSV-1 (virus dilution 10^−5.0), in the data set with HSV-1 (virus dilution 10^−5.48) and in the data set with HSV-1 (virus dilution 10^−5.95) was 0 in each case. Moreover, the Relative infectiosity in the data set with HSV-1 (virus dilution 10^−5.0), in the data set on HSV-1 (virus dilution 10^−5.48) and with HSV-1 (virus dilution 10^−5.95) was 0 each time. The Relative inhibition in the data set with HSV-1 (virus dilution 10^−5.0), with HSV-1 (virus dilution 10^−5.48) and in the data set on HSV-1 (virus dilution 10^−5.95) was 100 throughout. Besides, the cytotoxicity result with Vero cells and in the data set on BGM cells was “negative” in each case.
